The values below are quoted from earlier work in publication PMC5465828 (Research in Pharmaceutical Sciences, 2017).

pIC50: −log10 of the molar value.

In the data set the test system is human colon carcinoma HCT116 cell line. As to conditions: read-out: IC50 of doxorubicin in HCT116 cells; doxorubicin alone.

Take `COc1cccc2c1C(=O)c1c(O)c3c(c(O)c1C2=O)C[C@@](O)(C(=O)CO)C[C@@H]3O[C@H]1C[C@H](N)[C@H](O)[C@H](C)O1` [doxorubicin]: the pIC50 was 6.70.

For orientation: pIC50 means the negative decadic logarithm of the IC50, by convention in mol/L.
